Reference: patent publication US20250145606A1 (Arcus Biosciences, Inc., priority 2023, published 2025)
Read-outs that look alike come from different tables or passages of the source.

Columns and labels:
c-Kit = c-Kit (Homo sapiens (Human), UniProt P10721); assay: Inhibition of c-Kit kinase activity (HTRF KinEASE-TK); format: biochemical; settings: biochemical, HTRF KinEASE-TK
Procedure, shortened: (§1)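 Recombinant kinases (2 nM CSF1R and c-Kit, 10 nM PDGFRα/β, 2× working) preincubated 1 h with compound in 50 mM HEPES pH 7.4, 5 mM MgCl2 (c-Kit) or 10 mM (others), 2 mM MnCl2; 2× ATP: c-Kit 16 μM, PDGFRα 1 μM, PDGFRβ 40 μM, CSF1R 20 μM. 120 min reaction at rt; TR-FRET 665/620 nm; IC50 by 4-parameter fit.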

PDGFRα = PDGFRα (Homo sapiens (Human), UniProt P16234); assay: Inhibition of PDGFRα kinase activity (HTRF KinEASE-TK); settings: biochemical, HTRF KinEASE-TK
Sequence of PDGFRα (P16234 24-1089): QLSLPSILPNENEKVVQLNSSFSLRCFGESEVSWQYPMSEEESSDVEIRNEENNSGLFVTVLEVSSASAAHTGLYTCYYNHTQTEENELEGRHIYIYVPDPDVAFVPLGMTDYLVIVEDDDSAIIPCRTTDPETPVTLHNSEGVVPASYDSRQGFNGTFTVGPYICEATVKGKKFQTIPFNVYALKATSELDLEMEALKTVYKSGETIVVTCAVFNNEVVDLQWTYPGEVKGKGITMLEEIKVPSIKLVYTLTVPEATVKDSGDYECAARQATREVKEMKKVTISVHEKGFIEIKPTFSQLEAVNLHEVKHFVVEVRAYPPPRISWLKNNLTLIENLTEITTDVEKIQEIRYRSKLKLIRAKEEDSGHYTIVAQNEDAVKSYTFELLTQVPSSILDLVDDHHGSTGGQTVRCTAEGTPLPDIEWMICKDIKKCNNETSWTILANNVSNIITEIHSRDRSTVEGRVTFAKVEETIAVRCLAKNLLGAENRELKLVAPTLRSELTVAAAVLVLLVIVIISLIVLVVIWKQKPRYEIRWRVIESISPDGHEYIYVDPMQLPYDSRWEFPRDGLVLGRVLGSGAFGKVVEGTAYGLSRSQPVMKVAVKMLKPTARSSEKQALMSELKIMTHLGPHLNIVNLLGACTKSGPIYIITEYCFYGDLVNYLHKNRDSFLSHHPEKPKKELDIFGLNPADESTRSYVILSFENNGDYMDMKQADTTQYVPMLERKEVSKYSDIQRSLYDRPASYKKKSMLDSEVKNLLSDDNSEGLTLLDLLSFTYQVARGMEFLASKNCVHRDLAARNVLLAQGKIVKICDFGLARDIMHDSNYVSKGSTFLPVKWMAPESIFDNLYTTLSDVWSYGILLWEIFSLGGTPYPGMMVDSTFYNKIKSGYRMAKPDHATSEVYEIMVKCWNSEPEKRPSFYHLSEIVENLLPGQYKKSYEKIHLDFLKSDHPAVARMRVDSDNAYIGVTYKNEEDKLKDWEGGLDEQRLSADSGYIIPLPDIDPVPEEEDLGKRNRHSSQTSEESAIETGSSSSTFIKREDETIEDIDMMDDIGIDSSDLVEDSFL
Procedure, shortened: as §1

PDGFRβ = PDGFRβ (Homo sapiens (Human), UniProt P09619); assay: Inhibition of PDGFRβ kinase activity (HTRF KinEASE-TK); settings: biochemical, HTRF KinEASE-TK
Sequence of PDGFRβ (P09619 33-1106): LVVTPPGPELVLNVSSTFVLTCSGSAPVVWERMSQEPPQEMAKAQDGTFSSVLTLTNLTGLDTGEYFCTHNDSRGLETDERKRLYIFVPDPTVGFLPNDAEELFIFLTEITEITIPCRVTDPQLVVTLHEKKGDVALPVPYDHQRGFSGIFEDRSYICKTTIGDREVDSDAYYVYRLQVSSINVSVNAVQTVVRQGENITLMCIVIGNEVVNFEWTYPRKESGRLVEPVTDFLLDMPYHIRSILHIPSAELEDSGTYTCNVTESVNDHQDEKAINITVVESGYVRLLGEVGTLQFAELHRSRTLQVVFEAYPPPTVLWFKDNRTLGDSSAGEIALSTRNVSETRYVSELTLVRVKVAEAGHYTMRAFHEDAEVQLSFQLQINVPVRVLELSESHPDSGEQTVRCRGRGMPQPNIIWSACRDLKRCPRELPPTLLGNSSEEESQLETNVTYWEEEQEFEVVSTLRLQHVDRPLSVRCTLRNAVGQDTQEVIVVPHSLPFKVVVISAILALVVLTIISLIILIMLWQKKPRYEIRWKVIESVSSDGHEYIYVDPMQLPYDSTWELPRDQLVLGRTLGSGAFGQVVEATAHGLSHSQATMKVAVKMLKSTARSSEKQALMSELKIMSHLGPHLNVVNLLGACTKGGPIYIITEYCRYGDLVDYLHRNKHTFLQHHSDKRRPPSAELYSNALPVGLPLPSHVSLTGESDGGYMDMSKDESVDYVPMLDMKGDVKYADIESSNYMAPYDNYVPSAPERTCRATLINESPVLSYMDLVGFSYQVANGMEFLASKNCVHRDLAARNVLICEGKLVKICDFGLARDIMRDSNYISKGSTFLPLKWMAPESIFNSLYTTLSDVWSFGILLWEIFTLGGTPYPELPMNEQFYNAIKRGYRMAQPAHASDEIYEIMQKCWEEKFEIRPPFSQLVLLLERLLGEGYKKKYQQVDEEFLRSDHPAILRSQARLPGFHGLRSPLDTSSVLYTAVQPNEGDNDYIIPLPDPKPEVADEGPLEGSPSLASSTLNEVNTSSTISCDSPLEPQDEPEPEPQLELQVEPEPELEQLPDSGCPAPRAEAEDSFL
Procedure, shortened: as §1

CSF1R = CSF1R (Homo sapiens (Human), UniProt P07333); assay: Inhibition of CSF1R kinase activity (HTRF KinEASE-TK); settings: biochemical, HTRF KinEASE-TK
Sequence of CSF1R (P07333 20-972): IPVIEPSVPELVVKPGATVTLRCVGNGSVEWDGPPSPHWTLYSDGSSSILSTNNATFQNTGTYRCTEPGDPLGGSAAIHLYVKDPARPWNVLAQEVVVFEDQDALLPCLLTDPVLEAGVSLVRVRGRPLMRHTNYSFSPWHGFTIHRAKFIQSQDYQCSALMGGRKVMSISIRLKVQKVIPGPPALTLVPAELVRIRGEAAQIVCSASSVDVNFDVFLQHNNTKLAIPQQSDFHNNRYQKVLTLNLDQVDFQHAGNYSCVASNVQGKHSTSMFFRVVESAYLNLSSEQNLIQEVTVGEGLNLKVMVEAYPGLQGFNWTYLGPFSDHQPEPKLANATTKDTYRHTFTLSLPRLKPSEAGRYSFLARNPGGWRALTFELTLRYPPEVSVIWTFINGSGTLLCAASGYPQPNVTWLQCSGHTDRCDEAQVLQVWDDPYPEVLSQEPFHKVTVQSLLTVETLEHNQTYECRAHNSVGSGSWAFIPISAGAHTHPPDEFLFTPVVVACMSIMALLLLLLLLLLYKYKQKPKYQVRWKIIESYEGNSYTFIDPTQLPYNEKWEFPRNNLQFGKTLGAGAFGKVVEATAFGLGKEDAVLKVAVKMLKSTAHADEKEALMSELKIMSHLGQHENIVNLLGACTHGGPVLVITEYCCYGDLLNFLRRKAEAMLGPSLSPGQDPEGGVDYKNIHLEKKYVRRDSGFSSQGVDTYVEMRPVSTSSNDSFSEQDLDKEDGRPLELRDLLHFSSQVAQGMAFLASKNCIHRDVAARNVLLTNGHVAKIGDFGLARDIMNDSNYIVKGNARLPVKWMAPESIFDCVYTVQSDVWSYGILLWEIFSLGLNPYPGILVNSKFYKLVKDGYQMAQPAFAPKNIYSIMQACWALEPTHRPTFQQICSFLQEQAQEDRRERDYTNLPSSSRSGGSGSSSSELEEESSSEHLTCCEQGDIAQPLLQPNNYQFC
Procedure, shortened: as §1

FLT3 = FLT3 (Homo sapiens (Human), UniProt P36888); assay: Inhibition of FLT3 kinase activity (HTRF KinEASE-TK); format: biochemical; settings: biochemical, HTRF KinEASE-TK
Sequence of FLT3 (P36888 27-993): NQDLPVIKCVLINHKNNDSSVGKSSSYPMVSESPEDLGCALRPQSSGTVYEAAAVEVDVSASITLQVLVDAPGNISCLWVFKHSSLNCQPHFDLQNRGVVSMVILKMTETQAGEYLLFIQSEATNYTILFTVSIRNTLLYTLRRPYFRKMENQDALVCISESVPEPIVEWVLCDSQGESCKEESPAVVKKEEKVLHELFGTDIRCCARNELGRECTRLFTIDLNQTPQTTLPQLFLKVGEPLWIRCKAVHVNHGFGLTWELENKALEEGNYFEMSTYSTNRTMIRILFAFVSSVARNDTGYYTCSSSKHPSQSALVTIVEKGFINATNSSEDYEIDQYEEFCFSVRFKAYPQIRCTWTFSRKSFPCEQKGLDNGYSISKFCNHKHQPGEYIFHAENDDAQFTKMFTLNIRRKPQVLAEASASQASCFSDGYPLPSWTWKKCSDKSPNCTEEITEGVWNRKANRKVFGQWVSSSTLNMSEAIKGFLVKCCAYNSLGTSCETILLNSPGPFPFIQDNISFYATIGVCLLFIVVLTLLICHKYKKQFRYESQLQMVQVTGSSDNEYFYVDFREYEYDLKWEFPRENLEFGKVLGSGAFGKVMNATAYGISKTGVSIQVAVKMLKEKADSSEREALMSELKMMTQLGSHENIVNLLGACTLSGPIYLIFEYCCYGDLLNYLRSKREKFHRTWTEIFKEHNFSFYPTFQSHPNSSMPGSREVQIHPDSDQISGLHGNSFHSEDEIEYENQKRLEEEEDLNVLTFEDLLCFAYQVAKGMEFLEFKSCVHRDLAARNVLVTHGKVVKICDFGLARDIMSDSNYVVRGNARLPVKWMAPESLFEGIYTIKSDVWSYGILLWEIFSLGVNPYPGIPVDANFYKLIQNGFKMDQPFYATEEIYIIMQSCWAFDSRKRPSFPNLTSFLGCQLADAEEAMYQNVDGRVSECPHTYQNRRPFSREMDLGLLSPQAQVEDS
Procedure, shortened: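 FLT3 tyrosine kinase activity was measured with the HTRF KinEASE-TK kit by following phosphorylation of a biotinylated TK peptide. After the 45 min reaction, 10 μL of detection mix was added: 0.2 μM (2×) Streptavidin-XL665 and 2 μM (2×) TK-Antibody-Cryptate in detection buffer. After 60 min, TR-FRET was read on an Envision as the 665 nm/620 nm emission ratio with 320 nm excitation.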

[1] = system: Phospho-KIT (Y703) in M07e cells; assay: Phospho-KIT (Y703) cellular assay in M07e cells; format: cell-based
Procedure, shortened: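 Serum-starved M07e cells preincubated 50 min at 37° C with 11-point half-log compound titration, then stimulated 10 min with SCF at 90.9 ng/mL final. Fixed, permeabilized cells stained for phospho-KIT Y703 and read by flow cytometry (live-gated geometric mean); IC50 by 4-parameter fit normalized to DMSO and positive control.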

[2] = system: Sprague Dawley rat hepatocytes; assay: Bioactivation assessment in rat hepatocytes; format: in vitro ADME; settings: 5 μM, 4 hours
Protocol: (§2) Bioactivation Assessment Procedure
(§3) Pooled male Sprague Dawley rat (BioIVT), male beagle dog (BioIVT), male cynomolgus monkey (BioIVT), and a 50-donor pool of cryopreserved human hepatocytes (BioIVT) was thawed in pre-warmed 37° C. InVitroGro™ HT media (BioIVT), centrifuged, and resuspended in the InVitroGro™ HI media (BioIVT). The number of viable cells was determined by the Trypan blue exclusion method. The cells were diluted to a concentration of two million viable cells per milliliter (viability >80%) and seeded into round-bottom 96-well plates. The test articles were dissolved in DMSO and further diluted in 50% CH3CN and InVitroGro™ HI media with final concentrations of 0.05% DMSO and 0.5% CH3CN in the incubation mixture. Incubation was performed at a final concentration of one million cells per milliliter and 5 μM test compounds with continuous shaking at 1100 rpm in a 37° C., 5/95% CO2/air incubator with 100% relative humidity. After 4 hours, the samples were quenched by addition of 3 volumes of CH3CN, vortexed for 15 minutes, and centrifuged at 4200 rpm for 15 minutes at 10° C. (Sorvall Legend XTR centrifuge, Thermo Scientific, Langenselbold, Germany). 80 μL of the resulting supernatant was transferred into a new plate and mixed with 160 μL water followed by liquid chromatography-high resolution mass spectrometry (LC-HRMS) analysis.
(§4) Structural assignments of metabolites were determined through mass spectral analysis. The level of bioactivation was estimated based on the relative peak area of bioactivation products to all identified metabolites. The following equation was used: […]
(§5) Bioactivation products included glutathione conjugates, imine methides, quinones, diols, and other relevant metabolites.

beagle dog hepatocytes = assay: Bioactivation assessment in dog hepatocytes; format: in vitro ADME; settings: 5 μM, 4 hours
Protocol: as §2, §3, §4, §5

human hepatocytes = assay: Bioactivation assessment in human hepatocytes; format: in vitro ADME; settings: 5 μM, 4 hours
Protocol: as §2, §3, §4, §5

[3] = system: cynomolgus monkey hepatocytes; assay: Bioactivation assessment in monkey hepatocytes; format: in vitro ADME; settings: 5 μM, 4 hours
Protocol: as §2, §3, §4, §5

[4] = M-07e, Phospho-KIT (Y703), M07e cells, read-out: M07e Cell IC50
[5] = M-07e, M07e cells, read-out: Phospho-KIT (Y703) cellular IC50

Sequence of c-Kit (P10721 26-976): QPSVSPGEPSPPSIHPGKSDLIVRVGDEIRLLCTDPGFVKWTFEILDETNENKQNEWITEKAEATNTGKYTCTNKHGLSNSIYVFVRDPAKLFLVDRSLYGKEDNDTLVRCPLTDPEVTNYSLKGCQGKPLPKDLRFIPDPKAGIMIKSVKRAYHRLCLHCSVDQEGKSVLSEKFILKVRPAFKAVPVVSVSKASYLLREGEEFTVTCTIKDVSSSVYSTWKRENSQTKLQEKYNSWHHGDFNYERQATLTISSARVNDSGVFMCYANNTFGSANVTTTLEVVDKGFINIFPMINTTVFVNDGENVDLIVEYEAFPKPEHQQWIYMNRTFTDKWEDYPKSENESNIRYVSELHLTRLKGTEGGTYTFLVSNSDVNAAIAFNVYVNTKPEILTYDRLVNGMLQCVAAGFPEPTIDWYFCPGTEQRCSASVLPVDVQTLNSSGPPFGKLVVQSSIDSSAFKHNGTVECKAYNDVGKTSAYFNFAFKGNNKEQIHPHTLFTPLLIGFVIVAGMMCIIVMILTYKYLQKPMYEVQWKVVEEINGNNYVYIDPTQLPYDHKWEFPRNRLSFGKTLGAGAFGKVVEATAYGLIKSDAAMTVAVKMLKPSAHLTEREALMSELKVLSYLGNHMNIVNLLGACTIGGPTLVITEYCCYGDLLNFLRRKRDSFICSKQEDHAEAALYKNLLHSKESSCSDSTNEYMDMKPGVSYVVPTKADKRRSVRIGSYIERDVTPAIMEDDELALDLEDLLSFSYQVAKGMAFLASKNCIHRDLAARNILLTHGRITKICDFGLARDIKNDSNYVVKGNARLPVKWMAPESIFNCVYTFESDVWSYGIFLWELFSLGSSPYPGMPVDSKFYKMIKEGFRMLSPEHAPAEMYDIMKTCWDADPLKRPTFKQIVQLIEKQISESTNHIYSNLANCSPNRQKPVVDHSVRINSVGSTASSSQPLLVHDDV

Structure (SMILES)	IC50 (c-Kit) [nM]	IC50 (PDGFRα) [nM]	IC50 (PDGFRβ) [nM]	IC50 (CSF1R) [nM]	IC50 (FLT3) [nM]	IC50 [1, 4] [nM]	IC50 ([1]; Phospho-KIT (Y703), M07e cells, read-out: M07e Cell IC50) [nM]	Percent of total metabolism via bioactivation, Rat hepatocytes [2] [%]	Percent of total metabolism via bioactivation, Dog hepatocytes (beagle dog hepatocytes) [%]	Percent of total metabolism via bioactivation, Human hepatocytes (human hepatocytes) [%]	IC50 ([1]; read-out: M07e Cell IC50) [nM]	IC50 [1, 5] [nM]	Percent of total metabolism via bioactivation, Monkey hepatocytes [3] [%]
Cc1cc(F)c(C(=O)Nc2ccc(OC3CC3)cc2)cc1NC(=O)c1cnc(N)s1 [Example 229, 2-Amino-N-[5-[(4-cyclopropyloxyphenyl)carbamoyl]-4-fluoro-2-methylphenyl]-1,3-thiazole-5-carboxamide]	< 100	< 100	< 100	100 to 1000	> 1000	< 100	–	–	–	–	–	–	–
COc1ccc(NC(=O)c2cc(NC(=O)c3cnc(N)s3)c(C)cc2F)cc1 [Example 230, 2-Amino-N-[4-fluoro-5-[(4-methoxyphenyl)carbamoyl]-2-methylphenyl]-1,3-thiazole-5-carboxamide]	< 100	100 to 1000	100 to 1000	100 to 1000	> 1000	< 100	–	–	–	–	–	–	–
Cc1cc(F)c(C(=O)Nc2ccc(Cl)cc2)cc1NC(=O)c1cnc(N)s1 [Example 231, 2-Amino-N-[5-[(4-chlorophenyl)carbamoyl]-4-fluoro-2-methylphenyl]-1,3-thiazole-5-carboxamide]	< 100	100 to 1000	100 to 1000	100 to 1000	> 1000	< 100	–	–	–	–	–	–	–
Cc1cc(F)c(C(=O)Nc2ccc(OC3CC3)cn2)cc1NC(=O)c1cnc(NC(=O)C2CC2)s1 [Example 238, 2-(Cyclopropanecarbonylamino)-NV-[5-[(5-cyclopropyloxypyridin-2-yl)carbamoyl]-4-fluoro-2-methylphenyl]-1,3-thiazole-5-carboxamide]	< 100	100 to 1000	< 100	100 to 1000	> 1000	–	< 100	–	–	–	–	–	–
CNc1ncc(C(=O)Nc2cc(C(=O)Nc3ccc(OC4CC4)cn3)c(F)cc2C)s1 [Example 241, N-[5-[(5-cyclopropyloxypyridin-2-yl)carbamoyl]-4-fluoro-2-methylphenyl]-2-(methylamino)-1,3-thiazole-5-carboxamide]	< 100	> 1000	> 1000	> 1000	> 1000	< 100	–	–	–	–	–	–	–
Cc1ncc(C(=O)Nc2cc(C(=O)Nc3ccc(CC(F)(F)F)cn3)c(F)cc2F)s1 [Example 242, N-[2,4-difluoro-5-[[5-(2,2,2-trifluoroethyl)pyridin-2-yl]carbamoyl]phenyl]-2-methyl-1,3-thiazole-5-carboxamide]	100 to 1000	> 1000	> 1000	> 1000	–	–	–	88	44	<1	–	–	–
COCC1(c2ccc(NC(=O)c3cc(NC(=O)c4cnc(N)s4)c(C)cc3F)nc2)CC1 [Example 244]	< 100	> 1000	100 to 1000	100 to 1000	> 1000	–	–	–	–	–	< 100	–	–
COCCc1ccc(NC(=O)c2cc(NC(=O)c3cnc(N)s3)c(C)cc2F)nc1 [Example 245, 2-Amino-N-[4-fluoro-5-[[5-(2-methoxyethyl)pyridin-2-yl]carbamoyl]-2-methylphenyl]-1,3-thiazole-5-carboxamide]	< 100	> 1000	> 1000	> 1000	> 1000	< 100	–	–	–	–	–	–	–
Cc1cc(F)c(C(=O)Nc2ccc(COCC3CC3)cn2)cc1NC(=O)c1cnc(N)s1 [Example 251, 2-Amino-N-[5-[[5-(cyclopropylmethoxymethyl)pyridin-2-yl]carbamoyl]-4-fluoro-2-methylphenyl]-1,3-thiazole-5-carboxamide]	< 100	> 1000	> 1000	> 1000	> 1000	< 100	–	–	–	–	–	–	–
CCc1ccc(NC(=O)c2cc(NC(=O)c3cnc(N)s3)c(C)cc2F)nc1 [Example 255, 2-Amino-N-[5-[(5-ethylpyridin-2-yl)carbamoyl]-4-fluoro-2-methylphenyl]-1,3-thiazole-5-carboxamide]	< 100	100 to 1000	100 to 1000	100 to 1000	> 1000	< 100	–	–	–	–	–	–	–
CO[C@H](C)c1ccc(NC(=O)c2cc(NC(=O)c3cnc(N)s3)c(C)cc2F)nc1 [Example 256, 2-Amino-N-[4-fluoro-5-[[5-[(1R)-1-methoxyethyl]pyridin-2-yl]carbamoyl]-2-methylphenyl]-1,3-thiazole-5-carboxamide]	< 100	> 1000	100 to 1000	> 1000	> 1000	< 100	–	–	–	–	–	–	–
CO[C@@H](C)c1ccc(NC(=O)c2cc(NC(=O)c3cnc(N)s3)c(C)cc2F)nc1 [Example 257, 2-Amino-N-[4-fluoro-5-[[5-[(1S)-1-methoxyethyl]pyridin-2-yl]carbamoyl]-2-methylphenyl]-1,3-thiazole-5-carboxamide]	< 100	> 1000	100 to 1000	> 1000	> 1000	< 100	–	–	–	–	–	–	–
Cc1cc(F)c(C(=O)Nc2ccc(OC3CC3)nn2)cc1NC(=O)c1cnc(N)s1 [Example 258, 2-Amino-N-[5-[(6-cyclopropyloxypyridazin-3-yl)carbamoyl]-4-fluoro-2-methylphenyl]-1,3-thiazole-5-carboxamide]	< 100	100 to 1000	100 to 1000	100 to 1000	> 1000	< 100	–	–	–	–	–	–	–
Cc1cc(F)c(C(=O)Nc2ccc(OC(C)C)nn2)cc1NC(=O)c1cnc(N)s1 [Example 259, 2-Amino-N-[4-fluoro-2-methyl-5-[(6-propan-2-yloxypyridazin-3-yl)carbamoyl]phenyl]-1,3-thiazole-5-carboxamide]	< 100	100 to 1000	< 100	100 to 1000	> 1000	–	–	–	–	–	–	< 100	–
COC1(c2ccc(NC(=O)c3cc(NC(=O)c4cnc(N)s4)c(C)cc3F)nc2)CC1 [Example 260, 2-Amino-N-[4-fluoro-5-[[5-(1-methoxycyclopropyl)pyridin-2-yl]carbamoyl]-2-methylphenyl]-1,3-thiazole-5-carboxamide]	< 100	> 1000	100 to 1000	100 to 1000	> 1000	–	–	–	–	–	–	< 100	–
Cc1ccc(-c2noc([C@H]3C[C@@H]3F)n2)cc1NC(=O)c1cnc2ccccn12 [labuxtinib, reference compound]	–	–	–	–	–	–	–	45	17	24	–	–	31
